Data published in publication PMC3435407, “αA-Crystallin–Derived Mini-Chaperone Modulates Stability and Function of Cataract Causing αAG98R-Crystallin” (PLoS ONE, 2012).
Non-standard residues stand in square brackets, D forms with d. No end group written: not given here. *: point of attachment. Biotin = O=C1N[C@H]2[C@H](CS[C@H]2CCCCC(=O)*)N1; Bpa = N[C@@H](Cc1ccc(C(=O)c2ccccc2)cc1)C(=O)O

Columns and labels:
α-crystallin = test system: α-crystallin; design: method as in 2 sources, one per row (each row's own in cited_ref): ref [43] = [43]; PMID 8549682; doi:10.1016/s0014-4835(05)80136-8; 43 Sharma KK , Ortwerth BJ ( 1995 ) Effect of cross-linking on the chaperone-like function of alpha crystallin . Exp Eye Res 61 : 413 – 421 . 8549682 10.1016/s0014-4835(05)80136-8 ||| ref [44] = [44]; PMID 15199188; doi:10.1073/pnas.0403532101; 44 Kantorow M , Hawse JR , Cowell TL , Benhamed S , Pizarro GO , et al ( 2004 ) Methionine sulfoxide reductase A is important for lens cell viability and resistance to oxidative stress . Proc Natl Aca; details: α-crystallin in water-insoluble fraction of lens proteins; ref [43]; cited from earlier work
wild-type α-crystallin = details: modulator in 10- to 30-fold higher concentrations than α-crystallin; ref [39]–[42]; cited from earlier work
Text: In those studies the modulator was used in 10- to 30-fold higher concentrations than the α-crystallin [39]–[42] and the conformational changes in α-crystallin in the presence of the modulator was considered to be responsible for the activity enhancement.

αAG98R [1] = molecular target: T1, αAG98R (Homo sapiens, UniProt P02489, G98R); assay: Photo-crosslinking, SDS-PAGE and western blot; type: binding; details: for covalent association with αAG98R subunits: photolyzed, SDS-PAGE and western blot
T1 construct: the full-length human αA-crystallin cDNA cloned into pET-23d (+) vector; made in house; host or cells: E. coli BL21(DE3)pLysS
Protocol: (§1) Biotinyl-αA-mini-chaperone-Bpa peptide (200 µg) was incubated with 200 µg of αAG98R crystallin in buffer, pH 7.2, at 37°C for 1 hr. Subsequently, the sample was filtered in a Microcon 10 kDa cut of filter (Millipore, Bedford, MA) to remove free peptides. The sample was photolyzed for 30 min, at 4°C, using a UV lamp (365 nm) held at a distance of 7 cm from the sample. The photolyzed sample was desalted using C18 zip tip spin columns (Thermo Fisher Scientific, Rockford, IL), as per the manufacturer's protocol, and the bound protein was eluted in 70% acetonitrile. […] The UV-photolyzed sample was subjected to SDS-PAGE and western blot analysis using antibody against biotin.
Figure 6 SDS-PAGE analysis of αAG98R cross-linked with biotinylated Bpa-mini-αA. Incubation, photolysis and SDS-PAGE (lanes 1–3), western blot (lanes 4 and 5) analysis were performed as described under methods. Lane 1, photolysed αAG98R; lane 2, αAG98R incubated with biotinyl-Bpa mini-αA and photolyzed; lane 3 mol wt markers. […] This band was absent in non-photolyzed samples (data not shown).Lanes 4 and 5 western blot of lanes 1 and 2 respectively. […] The figure is representative of 3 independent experiments.

αAG98R [2] = molecular target: T1, αAG98R; assay: Photo-crosslinking, MALDI-TOF/TOF MS; type: binding; details: photolyzed; restated in the discussion
Protocol: as §1
Figure 7 MALDI-TOF MS spectrum of αAG98R photolyzed after incubation with or without biotinyl-Bpa-mini-αA-crystallin. A, αAG98R after photolysis; B, αAG98R photolyzed after incubation with biotinyl-Bpa mini-αA. The αAG98R-Bpa mini-αA complex with m/z 22592 is indicated by an arrow. Mass spectrometric analysis confirms the 1∶1 interaction of mini-chaperone with αAG98R monomer. The figure is representative of 3 independent experiments.

[3] = test system: alcohol dehydrogenase (ADH); assay: ADH aggregation assay, heat-denatured (chaperone-like activity); type: biochemical; details: peptide alone, 43°C
Protocol: (§2) Aggregation assay was performed in 1 ml 50 mM phosphate buffer containing 150 mM NaCl and 100 mM EDTA at 43°C. The chaperone activity of Biotin-[…](Bpa)[…] as well as a Pro-substituted mini-chaperone ([…]) was also measured by ADH aggregation assay. The extent of aggregation was estimated by monitoring the light scattering at 360 nm using a Shimadzu UV-VIS spectrophotometer equipped with a temperature-controlled multi-cell transporter.
Similar to our earlier observation, αAG98R suppressed ADH aggregation during the early part of the 2 hr assay but the assay mixture started to scatter light after 60 min (Figure 5A).
Figure 5 Effect of the addition of αA-crystallin–derived mini-chaperone on the chaperone-like activity of αAG98R against ADH aggregation. […] The figures represent the typical data obtained multiple times with WT-αA-crystallin and stabilized αAG98R.

αAG98R [4] = molecular target: T1, αAG98R; assay: Recovery of soluble αAG98R after incubation at 43°C (gel filtration, TSK G5000PWXL); type: biochemical; details: 75 µg αAG98R
Protocol: (§3) Samples were injected on to a TSK G5000PWXL (Tosoh Bioscience, Montgomeryville, PA) size-exclusion column equilibrated with 50 mM sodium phosphate buffer containing 150 mM NaCl (pH 7.2). The flow rate was set to 0.75 ml/min. The column was attached to a HPLC system connected with UV and refractive index detectors and coupled to a static multi-angle laser light scattering (DAWN-EOS) and dynamic quasi-elastic light scattering detectors (Wyatt Technology, Santa Barbara, CA). The molar mass (Mw), hydrodynamic radius (Rh) and polydispersity index (PDI) were determined using ASTRA (5.3.2) software developed by Wyatt Technology.
(§4) We know from previous studies thatαA-mini-chaperone suppresses the aggregation and precipitation of denaturing proteins, [29], [30]. […] The samples were centrifuged to remove any precipitate formed during incubation, and the supernatant was analyzed by TSKG5000 PWXL gel filtration column connected to a multi-angle laser light scattering (DAWN-EOS) and dynamic quasi-elastic light scattering detectors. […] The first peak corresponded to the oligomeric form of αAG98R, whereas the second peak represented dissociated subunits of the mutant protein. […] The hydrodynamic radius (Rh) of the stabilized αAG98R increased from 15.3 nm to 16.4 nm, consistent with increase in molar mass.

αAG98R [5] = molecular target: T1, αAG98R; assay: αAG98R recovery with different amounts of mini-chaperone (43°C, 30 min); type: binding; details: 1∶2 ratio (mol/mol) of αAG98R to mini-αA, 10 µM αAG98R
αAG98R [6] = molecular target: T1, αAG98R; assay: Thermal aggregation monitored by light scattering at 360 nm; type: biochemical; details: 750 µg αAG98R, 1.7∶1 (mol/mol) ratio, 90 min, representative of 3 experiments
Protocol: Light scattering was monitored at 360 nm for 90 min using a spectrophotometer. […] Because αAG98R is a structurally perturbed protein [20], [21], we hypothesize that the mini-chaperone interacted with mutant αAG98R and prevented aggregation and light scattering. […] The aggregation and precipitation of αAG98R also occurred at 37°C but at a slower rate. […] Nearly 80% of αAG98R was recovered when the incubation was carried out with 1∶2 ratio (mol/mol) of αAG98R to mini-αA-.
The protein samples (750 µg) were incubated in 1 ml PO4 buffer, pH 7.2 at 43°C and light scattering was continually monitored at 360 nm for 90 min in a spectrophotometer. […] The figure is representative of 3 independent experiments.

[7] = test system: alcohol dehydrogenase (ADH); assay: EDTA-induced ADH aggregation assay at 37°C; type: biochemical; details: 250 µg ADH, 50 µg peptide, representative of two experiments
Protocol: as §2
The EDTA-induced aggregation of ADH assay was performed at 37°C as described under methods. In each experiment 250 µg of ADH was used. […] The figure is representative of two independent experiments. (TIF) Click here for additional data file.

[8] = test system: ADH, citrate synthase, insulin and α-lactalbumin; design: method as in PMID 10660525, PMID 11350603, PMID 11563692; details: ref [26], [29], [30]; cited from earlier work
[9] = test system: αAG98R / wild-type αA-crystallin oligomer; assay: Multi-angle/quasi-elastic light scattering of αA-crystallin oligomers; type: physicochemical, human; details: 43°C, wild-type protein
Protocol: as §3, §4

[10] = test system: αAG98R / wild-type αA-crystallin; assay: Far-UV CD thermal denaturation (218 nm); type: physicochemical, human; details: 100 µg/400 µl, 10 mM phosphate pH 7.2, listed as αA-crystallin mini-chaperone = αAG98R incubated with it
Protocol: Circular dichroism (CD) spectropolarimeter, J815 (Jasco, Easton, MD), equipped with a temperature control system, was employed to record CD spectra. Far-UV CD measurements were carried out over the wavelength range of 190 to 250 nm with bandwidth 0.5 nm, scan speed 10 nm/min using 0.1-cm path length cuvettes. Protein samples were prepared in 10 mM sodium phosphate buffer (pH 7.2). Spectra are the average of five scans. Buffer signal was subtracted prior to reporting the data. Thermal denaturation data were collected from 25°C to 45°C, with protein concentration of 100 µg/400 µl. Thermal denaturation experiments were performed with a heating rate of 1°C/min, and CD signals at 218 nm were used to determine transition midpoints. Near-UV CD spectra were recorded using a protein sample of 1.5 mg/ml in the buffer used for far-UV studies.
Proteins, 100 µg, were prepared in 400 µl of10 mM phosphate buffer, pH 7.2, and the sample temperatures were slowly raised from 25 to 48°C in 2°C steps, equilibrated for 5 min at each temperature prior to far-UV CD measurement. Molar ellipticity changes at 218 nm were plotted to determine relative stability of samples. […] The spectra were recorded using a protein sample of 1.5 mg/ml. The profile shown is the average of 5 scans.

T1 sequence (P02489 whole entry G98R): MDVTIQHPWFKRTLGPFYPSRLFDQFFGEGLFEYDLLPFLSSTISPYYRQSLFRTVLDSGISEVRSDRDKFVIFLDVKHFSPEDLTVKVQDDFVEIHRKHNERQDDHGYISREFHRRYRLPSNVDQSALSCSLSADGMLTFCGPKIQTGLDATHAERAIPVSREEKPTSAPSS

Compound: O[C@@H](CS)[C@@H](O)CS (racemic) [dithiothreitol (DTT), dithiothreitol]
- restoration of chaperone activity by DTT (α-crystallin): restores some of the lost chaperone activity

Compound: Nc1ncnc2c1ncn2[C@@H]1O[C@H](COP(=O)(O)OP(=O)(O)OP(=O)(O)O)[C@@H](O)[C@H]1O [ATP]
- modulation of wild-type α-crystallin chaperone activity (wild-type α-crystallin): Modulation of wild-type α-crystallin chaperone activity

Compound: N=C(N)NN [aminoguanidine]
- modulation of wild-type α-crystallin chaperone activity (wild-type α-crystallin): Modulation of wild-type α-crystallin chaperone activity

Compound: N=C(N)NCCC[C@H](N)C(=O)O [arginine]
- modulation of wild-type α-crystallin chaperone activity (wild-type α-crystallin): Modulation of wild-type α-crystallin chaperone activity

Compound: N[C@@H](CCC(=O)N[C@@H](CS)C(=O)NCC(=O)O)C(=O)O [glutathione]
- modulation of wild-type α-crystallin chaperone activity (wild-type α-crystallin): Modulation of wild-type α-crystallin chaperone activity

Compound: Biotin-DFVIFLDVKH[Bpa]SPEDLTVK [biotinyl-Bpa-mini-chaperone] [listing 1 of 2 here]
- αAG98R photo-crosslinked (image analysis of stained gel) (αAG98R [1]; 200 µg peptide + 200 µg αAG98R, pH 7.2, 37°C, 1 hr, photolysis 365 nm 30 min 4°C, representative of 3 experiments): about 10%
- covalent association with αAG98R subunits (αAG98R [1]; representative of 3 experiments): covalent association of αA-mini-chaperone with αAG98R subunits was observed
- covalent association with αAG98R subunits (αAG98R [1]; representative of 3 experiments, listed as biotinyl-Bpa mini-αA): confirms the binding of a mini-chaperone to a subunit of αAG98R
- Bpa-peptide incorporated into αAG98R subunit (αAG98R [2]): about 10%

Compound: Biotin-DFVIFLDVKH[Bpa]SPEDLTVK [biotinyl-Bpa-mini-chaperone] [listing 2 of 2 here]
- chaperone activity of Bpa peptide (heat-denatured ADH) [3]: retained chaperone activity
- chaperone activity of Bpa peptide (heat-denatured ADH) ([3]; listed as biotin-DFVIFLDVKH(benzoylphenylalanine)SPEDLTVK): active in suppressing the aggregation of heat-denatured ADH
- binding stoichiometry (SDS-PAGE/western blot) (αAG98R [1]; photolyzed mixture): one peptide was incorporated into one subunit of αAG98R

Compound: DFVIFLDVKHFSPEDLTVK [αA-mini-chaperone]
- mutant protein recovered in soluble form (percent) (αAG98R [4]; with or without 10 µg αA-mini-chaperone, 1 hr, listed as αAG98R = absence of mini-chaperone): 79%
- recovery of αAG98R (αAG98R [5]): ~80%

Compound: DFVPFLDVKHFSPEDLTVK [Pro-substituted mini-chaperone]
- effect on monomeric peak / dissociation / precipitation of αAG98R (αAG98R [4]; gel filtration TSK G5000PWXL): did not prevent the precipitation of αAG98R
- suppression of αAG98R aggregation, 43°C (αAG98R [6]): failed to suppress precipitation of the mutant protein
- chaperone activity of Pro-substituted peptide (EDTA-induced ADH aggregation) [7]: no chaperone activity
- chaperone activity of Pro-substituted peptide (EDTA-induced ADH aggregation) ([7]; listed as αA-mini-chaperone (pro)): Pro-substitution abolishes the chaperone activity of mini-chaperone

Compound: KFVIFLDVKHFSPEDLTVK [αA70-88, 19 amino acid peptide representing the chaperone site in αA-crystallin]
- suppression of aggregation of denaturing ADH, citrate synthase, insulin and α-lactalbumin; chaperone-like function [8]: functions like a molecular chaperone

Compound: wild-type αA-crystallin: recombinant wild-type human αA-crystallin expressed in E. coli
- oligomeric size and molar mass change upon incubation [9]: oligomeric size and molar mass did not change
- temperature up to which / above which 218 nm ellipticity is stable / changes [10]: 40 °C
